One assay deals with Rhesus PDE2A3 (Macaca mulatta, UniProt B3VTJ2). In words: PDE2 fluorescence polarization (IMAP FP) inhibition assay, rhesus enzyme. Type of assay: biochemical, rhesus macaque. A digest of the protocol: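 Rhesus PDE2A3 came from lysate of transiently transfected AD293 cells, diluted to give 20% substrate conversion. Substrate was 50 nM FAM-cAMP with 1 uM cGMP activator in Tris pH 7.2/MgCl2 buffer, run 60 min at room temperature over 10-point 3-fold dilutions in 1% DMSO. Read-out was IMAP fluorescence polarization (mP) after ≥1 h binding.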
Background: Polarisation of emitted light reports the rotation of a fluorescent probe.

For another assay, the target named is human PDE2A1 (Homo sapiens (Human), UniProt O00408). In words: IMAP FP PDE selectivity panel, human PDE2A1. Type of assay: biochemical. The essentials:
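GST-tagged human PDE2A1 expressed in insect cells, run at room temperature for 60 min with 50 nM FAM-cAMP containing 1000 nM cGMP, pH 7.2 Tris/MgCl2 buffer. IMAP fluorescence polarization read after binding step.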

The mark [1] stands for this setting: Rhesus PDE2, Lab B, read-out: Rhesus PDE2 Ki (nM) - Lab B.
[2] abbreviates: Human PDE2, Lab B, read-out: Human PDE2 Ki (nM) - Lab B.
[3] abbreviates: Rhesus PDE2, Lab A, read-out: Rhesus PDE2 Ki (nM) - Lab A.
[4] abbreviates: Human PDE2, Lab A, read-out: Human PDE2 Ki (nM) - Lab A.

Read-outs that look alike come from different tables or passages of the source.

Rhesus PDE2A3, sequence (B3VTJ2 1-941): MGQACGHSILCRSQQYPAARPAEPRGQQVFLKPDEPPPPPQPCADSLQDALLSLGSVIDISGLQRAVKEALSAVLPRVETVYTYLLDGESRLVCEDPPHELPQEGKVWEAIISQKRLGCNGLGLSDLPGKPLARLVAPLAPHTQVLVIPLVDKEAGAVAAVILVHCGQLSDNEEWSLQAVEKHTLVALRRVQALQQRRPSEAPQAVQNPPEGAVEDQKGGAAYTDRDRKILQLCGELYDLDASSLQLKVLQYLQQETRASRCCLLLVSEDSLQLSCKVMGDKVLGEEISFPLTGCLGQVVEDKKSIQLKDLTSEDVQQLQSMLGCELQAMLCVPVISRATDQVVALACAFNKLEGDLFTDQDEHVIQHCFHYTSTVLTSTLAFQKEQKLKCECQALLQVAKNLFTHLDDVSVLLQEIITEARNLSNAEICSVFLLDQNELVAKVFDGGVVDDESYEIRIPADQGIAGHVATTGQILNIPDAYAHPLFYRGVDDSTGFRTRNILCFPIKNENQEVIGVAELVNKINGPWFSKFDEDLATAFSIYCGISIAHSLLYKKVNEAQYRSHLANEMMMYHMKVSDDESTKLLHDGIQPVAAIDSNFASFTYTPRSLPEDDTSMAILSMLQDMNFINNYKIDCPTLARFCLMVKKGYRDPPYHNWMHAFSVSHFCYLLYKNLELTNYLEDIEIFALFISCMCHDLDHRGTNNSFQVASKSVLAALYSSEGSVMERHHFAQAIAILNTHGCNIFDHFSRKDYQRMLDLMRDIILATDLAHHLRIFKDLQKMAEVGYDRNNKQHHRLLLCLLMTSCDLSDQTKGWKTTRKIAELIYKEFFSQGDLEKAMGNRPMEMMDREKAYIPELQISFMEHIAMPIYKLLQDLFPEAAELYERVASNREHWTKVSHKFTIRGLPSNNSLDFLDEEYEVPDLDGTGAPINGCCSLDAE
human PDE2A1, sequence (O00408 other isoform, or with tags, fused parts or gaps): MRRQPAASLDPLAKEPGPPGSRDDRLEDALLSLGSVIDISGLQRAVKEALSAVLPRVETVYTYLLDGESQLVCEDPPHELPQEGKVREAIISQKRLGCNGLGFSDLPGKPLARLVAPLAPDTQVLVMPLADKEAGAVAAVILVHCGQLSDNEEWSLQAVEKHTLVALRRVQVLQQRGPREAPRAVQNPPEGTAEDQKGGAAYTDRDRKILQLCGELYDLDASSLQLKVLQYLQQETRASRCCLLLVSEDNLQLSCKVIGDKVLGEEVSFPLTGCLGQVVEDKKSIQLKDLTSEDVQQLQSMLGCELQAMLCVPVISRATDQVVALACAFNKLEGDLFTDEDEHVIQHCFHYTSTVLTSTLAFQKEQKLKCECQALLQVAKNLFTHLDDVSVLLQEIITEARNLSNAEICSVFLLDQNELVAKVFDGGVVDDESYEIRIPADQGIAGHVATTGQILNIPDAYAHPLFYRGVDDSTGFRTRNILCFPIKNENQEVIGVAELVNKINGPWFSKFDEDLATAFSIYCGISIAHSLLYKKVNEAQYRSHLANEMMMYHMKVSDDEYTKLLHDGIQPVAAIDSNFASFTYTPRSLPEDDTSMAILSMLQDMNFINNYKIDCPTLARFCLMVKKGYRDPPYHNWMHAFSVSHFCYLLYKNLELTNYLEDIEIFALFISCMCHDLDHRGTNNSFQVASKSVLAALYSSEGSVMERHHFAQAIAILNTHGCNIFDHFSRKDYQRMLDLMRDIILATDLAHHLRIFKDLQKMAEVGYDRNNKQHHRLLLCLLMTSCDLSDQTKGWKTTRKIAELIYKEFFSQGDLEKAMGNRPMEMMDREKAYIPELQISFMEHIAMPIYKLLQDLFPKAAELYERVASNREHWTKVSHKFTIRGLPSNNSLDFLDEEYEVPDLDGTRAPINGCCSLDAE

Broadly, the Ki is the equilibrium dissociation constant of an inhibitor or competing ligand from its target. With `CC[C@@H](NC(=O)c1cc(=O)[nH]c(C(C)(C)c2ccc(OC)cc2)n1)c1ccc(SC(F)(F)F)c(F)c1` [Example 496, N-[(1R)-1-{3-fluoro-4-[(trifluoromethyl)sulfanyl]phenyl}propyl]-2-[1-(4-methoxyphenyl)-1-methylethyl]-6-oxo-1,6-dihydropyrimidine-4-carboxamide], the results for the inhibition constant (Ki) at Rhesus PDE2A3 (setting [1]) and on human PDE2A1 (setting [2]) were 38 nM and 40 nM, respectively.
As to `CC[C@@H](NC(=O)c1cc(=O)[nH]c(C)n1)c1ccc(S(F)(F)(F)(F)F)cc1` [Example 51, 2-methyl-6-oxo-N-{(1R)-1-[4-(pentafluoro-λ^6-sulfanyl)phenyl]propyl}-1,6-dihydropyrimidine-4-carboxamide], the Ki at Rhesus PDE2A3 (setting [3]) was 18 nM; at Rhesus PDE2A3 (setting [1]), 18 nM; at human PDE2A1 (setting [4]) it was around 6.1 nM; at human PDE2A1 (setting [2]), 20 nM.
Take `O=C(NC1(c2ccc(C(F)(F)F)c(F)c2)CC1)c1cc(=O)[nH]c(-c2ncccn2)n1` [Example 76, N-{1-[3-fluoro-4-(trifluoromethyl)phenyl]cyclopropyl}-6-oxo-1,6-dihydro-2,2′-bipyrimidine-4-carboxamide]: the Ki on Rhesus PDE2A3 (setting [3]) came to 17 nM; at Rhesus PDE2A3 (setting [1]), 18 nM; on human PDE2A1 (setting [2]), 21 nM.
Turning to `COc1ccc2cc(C(C)NC(=O)c3cc(=O)[nH]c(-c4ccccc4)n3)ccc2c1` (centres unmarked) [Example 378, N-[1-(6-methoxynaphthalen-2-yl)ethyl]-6-oxo-2-phenyl-1,6-dihydropyrimidine-4-carboxamide], the Ki stood at 26 nM at Rhesus PDE2A3 (setting [3]), 41 nM at Rhesus PDE2A3 (setting [1]) and 41 nM on human PDE2A1 (setting [2]).
Turning to `COc1ccc(Cc2nc(C(=O)N[C@@H](c3ccc(C(F)(F)F)c(F)c3)C3CC3)cc(=O)[nH]2)cc1F` [Example 522, N-{(R)-cyclopropyl[3-fluoro-4-(trifluoromethyl)phenyl]methyl}-2-(3-fluoro-4-methoxybenzyl)-6-oxo-1,6-dihydropyrimidine-4-carboxamide], the Ki was determined as 2.9 nM on Rhesus PDE2A3 (setting [1]) and 2.6 nM at human PDE2A1 (setting [2]).
Regarding `CC(C)(NC(=O)c1cc(=O)[nH]c(C2CC2)n1)c1ccc(SC(F)(F)F)cc1` [Example 222, 2-cyclopropyl-N-(1-methyl-1-{4-[(trifluoromethyl)sulfanyl]phenyl}ethyl)-6-oxo-1,6-dihydropyrimidine-4-carboxamide], the Ki on Rhesus PDE2A3 (setting [3]) is 89 nM; at human PDE2A1 (setting [4]) it was 45 nM.
As to `C[C@@H](NC(=O)c1cc(=O)[nH]c(C2CC2)n1)c1ccc(SC(F)(F)F)c(F)c1` [Example 243, 2-cyclopropyl-N-[(1R)-1-{3-fluoro-4-[(trifluoromethyl)sulfanyl]phenyl}ethyl]-6-oxo-1,6-dihydropyrimidine-4-carboxamide], the Ki turned out to be 3.6 nM at Rhesus PDE2A3 (setting [3]), 6.7 nM on Rhesus PDE2A3 (setting [1]) and 5.8 nM at human PDE2A1 (setting [2]).
On to `Cc1nc(C(=O)NC(C(=O)O)c2ccc(C(F)(F)F)cc2)cc(=O)[nH]1` (racemic) [Example 326, 2-(2-Methyl-6-oxo-1,6-dihydropyrimidine-4-carboxamido)-2-(4-(trifluoromethyl)phenyl)acetic acid], for which the Ki is 70 nM on Rhesus PDE2A3 (setting [3]) and 67 nM on human PDE2A1 (setting [4]).
As to `CC[C@@H](NC(=O)c1cc(=O)[nH]c(C)n1)c1ccc(OC(F)(F)F)c(F)c1` [Example 39, N-{(1R)-1-[3-fluoro-4-(trifluoromethoxy)phenyl]propyl}-2-methyl-6-oxo-1,6-dihydropyrimidine-4-carboxamide], the Ki at Rhesus PDE2A3 (setting [3]) turned out to be 17 nM; on human PDE2A1 (setting [4]) it was 8.8 nM.
With `O=C(N[C@H](CC(F)(F)F)c1ccc(C(F)(F)F)cc1)c1cc(=O)[nH]c(-c2ccccc2)n1` [Example 353, 6-oxo-2-phenyl-N-{(1R)-3,3,3-trifluoro-1-[4-(trifluoromethyl)phenyl]propyl}-1,6-dihydropyrimidine-4-carboxamide], the Ki on Rhesus PDE2A3 (setting [3]) is around 9.2 nM; at Rhesus PDE2A3 (setting [1]) it was 23 nM; at human PDE2A1 (setting [2]), 21 nM.

Source of the values: patent US9815796B2 (Merck Sharp & Dohme Corp., priority 2013, dated 2017).
